Measurements reported in patent US7495018B2, “Substituted 1,3-thiazole compounds, their production and use” (Takeda Pharmaceutical Company Limited, priority 2000, dated 2009).

SMILES	melting point
CSCCc1nc(-c2cccc(Cl)c2)c(-c2ccnc(N)c2)s1	96 to 97 °C
CSCc1nc(-c2cccc(Cl)c2)c(-c2ccnc(N)c2)s1	111 to 112 °C
CC(F)(F)c1nc(-c2cccc(Cl)c2)c(-c2ccnc(N)c2)s1	131 to 132 °C
CCC(=O)Nc1cc(-c2sc(C3CCNCC3)nc2-c2cccc(Cl)c2)ccn1.Cl.Cl	202 to 203 °C
Cc1cccc(-c2nc(NC(=O)NCCCl)sc2-c2ccnc(C)c2)c1	149 to 151 °C
CCc1nc(-c2cccc(C)c2)c(-c2ccnc(NC(=O)OC(C)(C)C)c2)s1 [Example 3, 5-[2-(tert-butoxycarbonylamino)-4-pyridyl]-2-ethyl-4-(3-methylphenyl)-1,3-thiazole]	162 to 163 °C
CCc1nc(-c2ccc(F)cc2)c(-c2ccnc(NC(C)=O)c2)s1 [Example 82-2, N-[4-[2-ethyl-4-(4-fluorophenyl)-1,3-thiazol-5-yl]-2-pyridyl]acetamide]	190 to 191 °C
CCc1nc(-c2cccc(C(F)(F)F)c2)c(-c2ccnc(NC(C)=O)c2)s1 [Example 82-3, N-[4-[2-ethyl-4-(3-trifluoromethylphenyl)-1,3-thiazol-5-yl]-2-pyridyl]acetamide]	146 to 147 °C
CCc1nc(-c2ccc(F)c(C)c2)c(-c2ccnc(NC(C)=O)c2)s1 [Example 82-4, N-[4-[2-ethyl-4-(4-fluoro-3-methylphenyl)-1,3-thiazol-5-yl]-2-pyridyl]acetamide]	142 to 143 °C
CCc1nc(-c2cccc(F)c2)c(-c2ccnc(NC(C)=O)c2)s1 [Example 82-5, N-[4-[2-ethyl-4-(3-fluorophenyl)-1,3-thiazol-5-yl]-2-pyridyl]acetamide]	141 to 142 °C
CCc1nc(-c2ccc(Cl)cc2)c(-c2ccnc(NC(C)=O)c2)s1 [Example 82-6, N-[4-[4-(4-chlorophenyl)-2-ethyl-1,3-thiazol-5-yl]-2-pyridyl]acetamide]	190 to 191 °C
CCc1cccc(-c2nc(CC)sc2-c2ccnc(NC(C)=O)c2)c1 [Example 82-7, N-[4-[2-ethyl-4-(3-ethylphenyl)-1,3-thiazol-5-yl]-2-pyridyl]acetamide]	112 to 113 °C
CCc1nc(-c2cccc(C(C)C)c2)c(-c2ccnc(NC(C)=O)c2)s1 [Example 82-8, N-[4-[2-ethyl-4-[3-(1-methylethyl)phenyl]-1,3thiazol-5-yl]-2-pyridyl]acetamide]	116 to 117 °C
CCCc1cccc(-c2nc(CC)sc2-c2ccnc(NC(C)=O)c2)c1 [Example 82-9, N-[4-[2-ethyl-4-(3-propylphenyl)-1,3-thiazol-5-yl]-2-pyridyl]acetamide]	121 to 122 °C
CC(=O)Nc1cc(-c2sc(C)nc2-c2cccc(C)c2)ccn1 [Example 82-10, N-[4-[2-methyl-4-(3-methylphenyl)-1,3-thiazol-5-yl]-2-pyridyl]acetamide]	162 to 163 °C
CC(=O)Nc1cc(-c2scnc2-c2cccc(C)c2)ccn1 [Example 82-11, N-[4-[4-(3-methylphenyl)-1,3-thiazol-5-yl]-2-pyridyl]acetamide]	149 to 150 °C

SMILES	melting point
CSc1ccc(-c2nc(-c3cccc(C)c3)c(-c3ccnc(NC(C)=O)c3)s2)cc1 [Example 82-12, N-[4-[4-(3-methylphenyl)-2-[4-(methylthio)phenyl]-1,3-thiazol-5-yl]-2-pyridyl]acetamide]	181 to 182 °C
CCC(=O)Nc1cc(-c2sc(CC)nc2-c2ccccc2)ccn1 [Example 84-1, N-[4-(2-ethyl-4-phenyl-1,3-thiazol-5-yl)-2-pyridyl]propionamide]	139 to 140 °C
CCC(=O)Nc1cc(-c2sc(CC)nc2-c2ccc(F)cc2)ccn1 [Example 84-2, N-[4-[2-ethyl-4-(4-fluorophenyl)-1,3-thiazol-5-yl]-2-pyridyl]propionamide]	156 to 157 °C
CCC(=O)Nc1cc(-c2sc(CC)nc2-c2cccc(C(F)(F)F)c2)ccn1 [Example 84-3, N-[4-[2-ethyl-4-(3-trifluoromethylphenyl)-1,3-thiazol-5-yl]-2-pyridyl]propionamide]	126 to 127 °C
CCC(=O)Nc1cc(-c2sc(CC)nc2-c2ccc(F)c(C)c2)ccn1 [Example 84-4, N-[4-[2-ethyl-4-(4-fluoro-3-methylphenyl)-1,3-thiazol-5-yl]-2-pyridyl]propionamide]	105 to 107 °C
CCC(=O)Nc1cc(-c2sc(CC)nc2-c2cccc(F)c2)ccn1 [Example 84-5, N-[4-[2-ethyl-4-(3-fluorophenyl)-1,3-thiazol-5-yl]-2-pyridyl]propionamide]	121 to 122 °C
CCC(=O)Nc1cc(-c2sc(CC)nc2-c2ccc(Cl)cc2)ccn1 [Example 84-6, N-[4-[4-(4-chlorophenyl)-2-ethyl-1,3-thiazol-5-yl]-2-pyridyl]propionamide]	152 to 153 °C
CCC(=O)Nc1cc(-c2sc(CC)nc2-c2cccc(C(C)C)c2)ccn1 [Example 84-7, N-[4-[2-ethyl-4-[3-(1-methylethyl)phenyl]-1,3-thiazol-5-yl]-2-pyridyl]propionamide]	93 to 94 °C
CCCc1cccc(-c2nc(CC)sc2-c2ccnc(NC(=O)CC)c2)c1 [Example 84-8, N-[4-[2-ethyl-4-(3-propylphenyl)-1,3-thiazol-5-yl]-2-pyridyl]propionamide]	124 to 125 °C
CCC(=O)Nc1cc(-c2sc(-c3ccc(SC)cc3)nc2-c2cccc(C)c2)ccn1 [Example 84-9, N-[4-[4-(3-methylphenyl)-2-[4-(methylthio)phenyl]-1,3-thiazol-5-yl]-2-pyridyl]propionamide]	171 to 172 °C
CCCC(=O)Nc1cc(-c2sc(CC)nc2-c2cccc(Cl)c2)ccn1 [Example 86, N-[4-[4-(3-chlorophenyl)-2-ethyl-1,3-thiazol-5-yl]-2-pyridyl]butyramide]	119 to 120 °C
CCCCC(=O)Nc1cc(-c2sc(CC)nc2-c2cccc(C)c2)ccn1 [Example 87-1, N-[4-[2-ethyl-4-(3-methylphenyl)-1,3-thiazol-5-yl]-2-pyridyl]valeramide]	81 to 82 °C
CCCCCC(=O)Nc1cc(-c2sc(CC)nc2-c2cccc(C)c2)ccn1 [Example 87-2, N-[4-[2-ethyl-4-(3-methylphenyl)-1,3-thiazol-5-yl]-2-pyridyl]hexanamide]	84 to 85 °C
CCc1nc(-c2cccc(C)c2)c(-c2ccnc(NC(=O)CC3CCCC3)c2)s1 [Example 89, N-[4-[2-ethyl-4-(3-methylphenyl)-1,3-thiazol-5-yl]-2-pyridyl]cyclopentylacetamide]	85 to 86 °C
CC(=O)Nc1cc(-c2sc(C3CCN(C(C)=O)CC3)nc2-c2cccc(Cl)c2)ccn1 [Example 93, N-[4-[2-(1-acetylpiperidin-4-yl)-4-(3-chlorophenyl)-1,3-thiazol-5-yl]-2-pyridyl]acetamide]	160 to 161 °C
CCC(=O)Nc1cc(-c2sc(C3CCN(C(C)=O)CC3)nc2-c2cccc(Cl)c2)ccn1 [Example 94, N-[4-[2-(1-acetylpiperidin-4-yl)-4-(3-chlorophenyl)-1,3-thiazol-5-yl]-2-pyridyl]propionamide]	174 to 175 °C

Next, values leading:

melting point	SMILES
109 to 110 °C	CCCCC(=O)Nc1cc(-c2sc(CC)nc2-c2cccc(Cl)c2)ccn1 [Example 88-1, N-[4-[4-(3-chlorophenyl)-2-ethyl-1,3-thiazol-5-yl]-2-pyridyl]valeramide]
114 to 115 °C	CCCCCC(=O)Nc1cc(-c2sc(CC)nc2-c2cccc(Cl)c2)ccn1 [Example 88-2, N-[4-[4-(3-chlorophenyl)-2-ethyl-1,3-thiazol-5-yl]-2-pyridyl]hexanamide]
121 to 122 °C	CCc1nc(-c2cccc(Cl)c2)c(-c2ccnc(NC(=O)CC3CCCC3)c2)s1 [Example 90-1, N-[4-[4-(3-chlorophenyl)-2-ethyl-1,3-thiazol-5-yl]-2-pyridyl]cyclopentylacetamide]
149 to 150 °C	CCc1nc(-c2ccc(Cl)cc2)c(-c2ccnc(NC(=O)CC3CCCC3)c2)s1 [Example 90-2, N-[4-[4-(4-chlorophenyl)-2-ethyl-1,3-thiazol-5-yl]-2-pyridyl]cyclopentylacetamide]
222 to 223 °C	CC(=O)Nc1cc(-c2sc(-c3ccc(S(C)(=O)=O)cc3)nc2-c2cccc(C)c2)ccn1 [Example 98-1, N-[4-[4-(3-methylphenyl)-2-(4-methylsulfonylphenyl)-1,3-thiazol-5-yl]-2-pyridyl]acetamide]
238 to 239 °C	CCC(=O)Nc1cc(-c2sc(-c3ccc(S(C)(=O)=O)cc3)nc2-c2cccc(C)c2)ccn1 [Example 98-2, N-[4-[4-(3-methylphenyl)-2-(4-methylsulfonylphenyl)-1,3-thiazol-5-yl]-2-pyridyl]propionamide]
98 to 99 °C	CSCCc1nc(-c2cccc(C)c2)c(-c2ccnc(N)c2)s1 [Example 99-1, 4-[4-(3-methylphenyl)-2-[2-(methylthio)ethyl]-1,3-thiazol-5-yl]-2-pyridylamine]
89 to 91 °C	Cc1cccc(-c2nc(C(C)OC(=O)c3ccccc3)sc2-c2ccnc(N)c2)c1 (centres unmarked) [Example 99-2, 1-[5-(2-amino-4-pyridyl)-4-(3-methylphenyl)-1,3thiazol-2-yl]ethyl benzoate]
85 to 86 °C	CCC(=O)Nc1cc(-c2sc(CCSC)nc2-c2cccc(C)c2)ccn1 [Example 102-1, N-[4-[4-(3-methylphenyl)-2-[2-(methylthio)ethyl]-1,3-thiazol-5-yl]-2-pyridyl]propionamide]
91 to 92 °C	CCC(=O)Nc1cc(-c2sc(CCSC)nc2-c2cccc(Cl)c2)ccn1 [Example 102-2, N-[4-[4-(3-chlorophenyl)-2-[2-(methylthio)ethyl]-1,3-thiazol-5-yl]-2-pyridyl]propionamide]
118 to 119 °C	CCC(=O)Nc1cc(-c2sc(CSC)nc2-c2cccc(Cl)c2)ccn1 [Example 102-3, N-[4-[4-(3-chlorophenyl)-2-(methylthio)methyl-1,3-thiazol-5-yl]-2-pyridyl]propionamide]
141 to 142 °C	CCC(=O)Nc1cc(-c2sc(C(C)(F)F)nc2-c2cccc(Cl)c2)ccn1 [Example 102-4, N-[4-[4-(3-chlorophenyl)-2-(1,1-difluoroethyl)-1,3-thiazol-5-yl]-2-pyridyl]propionamide]
